From patent publication US20210253518A1, “KINASE INHIBITOR” (NISSAN CHEMICAL CORPORATION, priority 2018, published 2021)
Like-named read-outs stand apart in the source and are kept apart here.

Tests used:
SGK3 = molecular target: T1, SGK3 (Homo sapiens, UniProt Q96BR1); experiment: Off-chip Mobility Shift Assay (MSA method), kinase inhibition; assay type: biochemical; settings: for inhibition at 0.1 µM: read-out: inhibition (%) SGK3
T1 sequence (Q96BR1 1-496): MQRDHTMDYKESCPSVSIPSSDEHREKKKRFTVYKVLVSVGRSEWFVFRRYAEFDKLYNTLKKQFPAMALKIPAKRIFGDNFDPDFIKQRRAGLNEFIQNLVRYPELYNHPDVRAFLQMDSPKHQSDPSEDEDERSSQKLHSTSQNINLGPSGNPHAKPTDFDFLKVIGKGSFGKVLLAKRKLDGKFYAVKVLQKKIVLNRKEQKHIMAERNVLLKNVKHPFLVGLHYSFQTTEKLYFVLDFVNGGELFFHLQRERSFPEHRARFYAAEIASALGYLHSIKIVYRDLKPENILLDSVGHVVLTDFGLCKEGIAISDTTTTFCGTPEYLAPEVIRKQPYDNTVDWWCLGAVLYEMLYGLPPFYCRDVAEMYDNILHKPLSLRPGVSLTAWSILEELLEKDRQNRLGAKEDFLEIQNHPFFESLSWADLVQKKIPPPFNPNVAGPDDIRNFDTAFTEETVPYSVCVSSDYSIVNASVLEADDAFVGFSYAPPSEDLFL
Experimental: For compound k-1:B-1, inhibitory activity evaluation (calculation of 50% inhibitory concentration (IC50)) was performed on 8 kinds of kinases (CGK2, LATS2, MSK1, p70S6K, PKACα, PKACβ, SGK2, SGK3). The activity was measured using the Off-chip Mobility Shift Assay (MSA method) described below. The compound was added such that the test concentration of k-1:B-1 was in 10 steps from the final concentration of 10 μM to 0.3 nM.
As an analysis method of the data, the mean signal of the control well containing all reaction components was set to 0% inhibition, the mean signal without enzyme addition was set to 100% inhibition, and the inhibition rate was calculated from the mean signal of 2 wells of each test substance test. The IC50 value was obtained by approximating a plot based on the test substance concentration and inhibition rate to a 4 parameter logistics curve by using the Excel Solver add-in and by the non-linear least squares method.
(§1) 5 μL of k-1:B-1 solution at 4-fold concentration, 5 μL of substrate/ATP/metal solution at 4-fold concentration, and 10 μL of kinase solution at 2-fold concentration, each prepared with assay buffer (20 mM HEPES, 0.01% Triton X-100, 2 mM DTT, pH 7.5), were mixed in the wells of a polypropylene 384-well plate and reacted at room temperature for 1 or 5 hr. Successively, 70 μL of Termination Buffer (QuickScout Screening Assist MSA; Carna Biosciences) was added to discontinue the reaction. Then, the substrate peptide and the phosphorylated peptide in the reaction solution were separated and quantified by the LabChip system (Perkin Elmer). The kinase reaction was evaluated by the resultant product ratio (P/(P+S)) calculated from the substrate peptide peak height (S) and the phosphorylated peptide peak height (P).
For compounds k-1:H-7, k-1:H-1, k-1:D-1, k-1:J-1, and k-1:B-1, inhibitory rate at 100 nM was calculated on 8 kinds of kinases (CGK2, LATS2, MSK1, p70S6K, PKACα, PKACβ, SGK2, SGK3). The activity was measured using the MSA method. As an analysis method of the data, the mean signal of the control well containing all reaction components was set to 0% inhibition, the mean signal without enzyme addition was set to 100% inhibition, and the inhibition rate was calculated from the mean signal of 2 wells of each test substance test.
as §1, with “a compound” for “k-1:B-1”

TAZ protein = experiment: Imaging analysis of nuclear translocation in human bone marrow-derived mesenchymal stem cells; assay type: cell-based; settings: 10 μM, 4 hr, no addition 10.05
Experimental: (§2) Nine fields of view were imaged per well using a 20× objective lens of Operatta CLS. The cell nucleus region and the cytoplasm region were identified from the obtained fluorescence images by using the analysis software Harmony (manufactured by PerkinElmer), and AlexaFluor® 647 fluorescence intensity per unit area and the AlexaFluor® 555 fluorescence intensity per unit area in each region were extracted. The nuclear translocation was evaluated by calculating the ratio of the fluorescence intensity of the cell nucleus region to the fluorescence intensity of the cytoplasmic region from the extracted values. The value becomes greater than 1 as the YAP protein and TAZ protein transfer into the cell nucleus, and less than 1 when localized in the cytoplasm.
(§3) Compounds k-1:B-1, k-1:H-1, and k-1:J-1 were evaluated for nuclear translocation of YAP protein and TAZ protein. For the nuclear translocation, imaging analysis was performed using the human bone marrow-derived mesenchymal stem cells (manufactured by PromoCell) and OperettaCLS (manufactured by PerkinElmer) described in Example 4. The compounds were added such that the final concentration of the test concentration of k-1:B-1, k-1:H-1, and k-1:J-1 was 10 μM.
(§4) Human bone marrow-derived mesenchymal stem cells cultured according to the protocol recommended by PromoCell were seeded on a 96-well plate (manufactured by PerkinElmer, CellCarrier-Ultra) at 25,000 cells/90 μL/well on the cycloolefin bottom surface, and cultured in a CO2 incubator (37° C., 5% CO2) for 1 day. After culturing, k-1:B-1, k-1:H-1, and k-1:J-1 solutions having a concentration of 100 μM were added. The cells were cultured in a CO2 incubator at 37° C. for 4 hr. The medium was exchanged with 4% para-formaldehyde solution, and the cells were fixed by allowing to stand at room temperature for 10 min. The fixed cells were subjected to immunostaining by the method described in Example 4.

YAP protein = experiment: as above; assay type: cell-based; settings: 10 μM, 4 hr, no addition 8.96
Experimental: as §2, §3, §4

| Structure (SMILES) | inhibition at 0.1 µM (SGK3; at 100 nM, MSA method) | IC50 (SGK3; MSA method, 10 steps from 10 μM to 0.3 nM) | inhibition at 0.1 µM (SGK3) | TAZ nuclear translocation rate (TAZ protein) | YAP nuclear translocation rate (YAP protein) |
| --- | --- | --- | --- | --- | --- |
| CC/C(=N\NC(=O)NCc1cccc(O)c1)c1ccc(O)c(C)c1O [k-1:J-1] | – | – | 82.5% | 14.95 | 12.70 |
| CC/C(=N\NC(=O)CNc1cccc(O)c1)c1ccc(O)c(C)c1O [k-1:D-1] | – | – | 93.6% | – | – |

The next lines start with results.

| inhibition at 0.1 µM (SGK3; at 100 nM, MSA method) | IC50 (SGK3; MSA method, 10 steps from 10 μM to 0.3 nM) | Structure (SMILES) | inhibition at 0.1 µM (SGK3) | TAZ nuclear translocation rate (TAZ protein) | YAP nuclear translocation rate (YAP protein) |
| --- | --- | --- | --- | --- | --- |
| 73.7% | – | CCC(=NNC(=O)CNc1ccccc1)c1ccc(O)c(C)c1O [k-1:H-1] | – | 13.42 | 11.55 |
| 65.9% | 63.3 nM | CC/C(=N\NC(=O)C(C)Nc1ccccc1)c1ccc(O)c(C)c1O (stereo not drawn) [k-1:B-1] | – | 11.59 | 10.17 |
| 44.4% | – | CCC(=NNC(=O)C(CC)Nc1ccccc1)c1ccc(O)c(C)c1O (stereo not drawn) [k-1:H-7] | – | – | – |
